Ends that are not written are not given here.
These sequences were tested against HLA-A03:01 (Homo sapiens, UniProt P04439) (assay: IC50 in vitro measurement, peptide exchange assay with fluorescence anisotropy).

First: KLILWRGLK [NCAPG2^P333L]
Second: KPILWRGLK [NCAPG2^WT]
The IC50 of the first is 22-fold lower: 202.9 ± 1.03 nM for the first, 4490 nM for the second.

First: RLFLGLAIK [KIF2C^P13L]
Second: RLFPGLAIK [KIF2C^WT]
The IC50 of the first is 1.6-fold higher: 237.4 ± 2 nM for the first, 146.2 ± 1.1 nM for the second.

These sequences were tested against HLA-B27:05 (Homo sapiens, UniProt P01889, D138H/D201E/E176V/E204Q/G107R/H137Y/K202T/N104T/N87E/Q56L/Q94K/R106L/R155S/R180L/S101D/S121N/S48T/Y140D/Y33H/Y91C) in the same assay as above.
Format: binding

First: GRIAFFLKY [SYTL4^S363F]
Second: GRIAFSLKY [SYTL4^WT]
The IC50 of the first is 2.2-fold higher: 214.7 ± 1.8 nM for the first, 97.3 ± 2.1 nM for the second. The second is the more potent here.

Reference: publication PMC8438848 (Journal for Immunotherapy of Cancer, 2021)
